The source of these data is patent US9067934B2, “Bicyclic pyridinones” (Pfizer Inc., priority 2011, dated 2015).

Structures can show the parent of a compound that is named as a salt.

For the test, the system named is production of amyloid beta protein Aβ(1-42) (γ-secretase) in human WT-APP overexpressing CHO cells. Briefly: Cell-Based γ-Secretase Assay with ELISA Readout. Conditions: human WT-APP overexpressing CHO cells, ~24 hours at 37° C., Aβ(1-42) ELISA; footnotes: a = geometric mean of >15 determinations, b = single determination, c = geometric mean of 7-15 determinations; read-out: Aβ 42B IC50 (Geometric Mean of 2-6 Determinations). The essentials: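 Human WT-APP-overexpressing CHO cells were pre-cultured 24 h at 37° C, then exposed to compounds (eleven-point half-log series, 1% final DMSO) for ~24 h. Aβ(1-42) in conditioned media was captured with Aβ(1-42)-specific antibody and detected with Eu-labeled 6e10 by DELFIA TRF. IC50 by nonlinear regression against min/max inhibition controls.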
For orientation: In an ELISA, binding on a coated surface is turned into a signal by an enzyme label.
The term IC50 denotes the concentration that inhibits the measured activity by half. As to `Cc1cn(-c2ccc3n(c2=O)CCN(C(C)COc2ccc(F)cc2C(F)(F)F)C3=O)cn1` (stereo not drawn) [Example 55, 2-{2-[4-fluoro-2-(trifluoromethyl)phenoxy]-1-methylethyl}-7-(4-methyl-1H-imidazol-1-yl)-3,4-dihydro-2H-pyrido[1,2-a]pyrazine-1,6-dione, formate salt], the IC50 was 0.168 µM.

`Cc1cn(-c2ccc3n(c2=O)CCN(CCOc2cc(C(F)(F)F)nn2-c2ccc(F)cc2C)C3=O)cn1` [Example 56, 2-(2-{[1-(4-fluoro-2-methylphenyl)-3-(trifluoromethyl)-1H-pyrazol-5-yl]oxy}ethyl)-7-(4-methyl-1H-imidazol-1-yl)-3,4-dihydro-2H-pyrido[1,2-a]pyrazine-1,6-dione]: the IC50 worked out at 0.399 µM.

For the compound `Cc1cn(-c2ccc3n(c2=O)CCN([C@@H](C)COc2ccc(F)cc2C(F)(F)F)C3=O)cn1` [Example 57, 2-{(1S)-2-[4-fluoro-2-(trifluoromethyl)phenoxy]-1-methylethyl}-7-(4-methyl-1H-imidazol-1-yl)-3,4-dihydro-2H-pyrido[1,2-a]pyrazine-1,6-dione], the IC50 was 0.113 µM.

With `Cc1cn(-c2ccc3n(c2=O)CCN(CCOc2ccccc2-c2cc(C(F)F)no2)C3=O)cn1` [Example 58, 2-(2-{2-[3-(difluoromethyl)isoxazol-5-yl]phenoxy}ethyl)-7-(4-methyl-1H-imidazol-1-yl)-3,4-dihydro-2H-pyrido[1,2-a]pyrazine-1,6-dione, trifluoroacetate salt], the IC50 was 0.0721 µM.

Consider `Cc1cn(-c2ccc3n(c2=O)CCN(CCOc2ccc(Cl)cc2-c2cc(C(F)(F)F)[nH]n2)C3=O)cn1` [Example 59, 2-(2-{4-chloro-2-[5-(trifluoromethyl)-1H-pyrazol-3-yl]phenoxy}ethyl)-7-(4-methyl-1H-imidazol-1-yl)-3,4-dihydro-2H-pyrido[1,2-a]pyrazine-1,6-dione], for which the IC50 was found to be 0.53 µM.

As for `COc1cccc2c(OCCN3CCn4c(ccc(-n5cnc(C)c5)c4=O)C3=O)cccc12` [Example 60, 2-{2-[(5-methoxy-1-naphthyl)oxy]ethyl}-7-(4-methyl-1H-imidazol-1-yl)-3,4-dihydro-2H-pyrido[1,2-a]pyrazine-1,6-dione, trifluoroacetate salt], the IC50 amounted to 0.0333 µM.

Take `Cc1cn(-c2ccc3n(c2=O)CCN(CCOc2ccnc4cc(C(F)(F)F)ccc24)C3=O)cn1` [Example 61, 7-(4-methyl-1H-imidazol-1-yl)-2-(2-{[7-(trifluoromethyl)quinolin-4-yl]oxy}ethyl)-3,4-dihydro-2H-pyrido[1,2-a]pyrazine-1,6-dione]: the IC50 is 0.108 µM.

For `Cc1cn(-c2ccc3n(c2=O)CCN(CCOc2cc(C(F)(F)F)nc4c(C)cc(Cl)cc24)C3=O)cn1` [Example 62, 2-(2-{[6-chloro-8-methyl-2-(trifluoromethyl)quinolin-4-yl]oxy}ethyl)-7-(4-methyl-1H-imidazol-1-yl)-3,4-dihydro-2H-pyrido[1,2-a]pyrazine-1,6-dione], the IC50 came to 0.0397 µM.

As for `Cc1cn(-c2ccc3n(c2=O)CCN(CCOc2cc(C(F)(F)F)nc4c(Cl)cccc24)C3=O)cn1` [Example 63, 2-(2-{[8-chloro-2-(trifluoromethyl)quinolin-4-yl]oxy}ethyl)-7-(4-methyl-1H-imidazol-1-yl)-3,4-dihydro-2H-pyrido[1,2-a]pyrazine-1,6-dione], the IC50 was determined as 0.0766 µM.

Turning to `COc1ccc2c(OCCN3CCn4c(ccc(-n5cnc(C)c5)c4=O)C3=O)cccc2c1F` [Example 64, 2-{2-[(5-fluoro-6-methoxy-1-naphthyl)oxy]ethyl}-7-(4-methyl-1H-imidazol-1-yl)-3,4-dihydro-2H-pyrido[1,2-a]pyrazine-1,6-dione, trifluoroacetate salt], the IC50 came to 0.0424 µM.

As to `Cc1cn(-c2ccc3n(c2=O)CCN(CCOc2ccccc2-c2ccc(C#N)c(C(F)(F)F)c2)C3=O)cn1` [Example 65, 2′-{2-[7-(4-methyl-1H-imidazol-1-yl)-1,6-dioxo-1,3,4,6-tetrahydro-2H-pyrido[1,2-a]pyrazin-2-yl]ethoxy}-3-(trifluoromethyl)biphenyl-4-carbonitrile], the IC50 worked out at 0.0461 µM.

`Cc1cn(-c2ccc3n(c2=O)CCN(CCOc2cc(C(F)(F)F)nc4c(Cl)ccc(F)c24)C3=O)cn1` [Example 66, 2-(2-{[8-chloro-5-fluoro-2-(trifluoromethyl)quinolin-4-yl]oxy}ethyl)-7-(4-methyl-1H-imidazol-1-yl)-3,4-dihydro-2H-pyrido[1,2-a]pyrazine-1,6-dione]: the IC50 was 0.0524 µM.

For `Cc1cn(-c2ccc3n(c2=O)CCN(CCOc2ccc(F)c(Cl)c2C(F)(F)F)C3=O)cn1` [Example 67, 2-{2-[3-chloro-4-fluoro-2-(trifluoromethyl)phenoxy]ethyl}-7-(4-methyl-1H-imidazol-1-yl)-3,4-dihydro-2H-pyrido[1,2-a]pyrazine-1,6-dione], the IC50 turned out to be 0.0584 µM.

For `Cc1cn(-c2ccc3n(c2=O)CCN(CCOc2ncc(Cl)c4ccccc24)C3=O)cn1` [Example 68, 2-{2-[(4-chloroisoquinolin-1-yl)oxy]ethyl}-7-(4-methyl-1H-imidazol-1-yl)-3,4-dihydro-2H-pyrido[1,2-a]pyrazine-1,6-dione, trifluoroacetate salt], the IC50 turned out to be 0.0594 µM.

On to `Cc1cn(-c2ccc3n(c2=O)CCN(CCOc2ccnc4ccc(C(F)(F)F)cc24)C3=O)cn1` [Example 69, 7-(4-methyl-1H-imidazol-1-yl)-2-(2-{[6-(trtfluoromethyl)quinolin-4-yl]oxy}ethyl)-3,4-dihydro-2H-pyrido[1,2-a]pyrazine-1,6-dione], for which the IC50 turned out to be 0.0583 µM.

For `C#CCCCOc1ccc(C(=O)c2cccc(OCCN3CCn4c(ccc(-n5cnc(C)c5)c4=O)C3=O)c2)cc1` [Example 70, 7-(4-methyl-1H-imidazol-1-yl)-2-(2-{3-[4-(pent-4-yn-1-yloxy)benzoyl]phenoxy}ethyl)-3,4-dihydro-2H-pyrido[1,2-a]pyrazine-1,6-dione], the IC50 is 0.135 µM.

As for `Cc1cn(-c2ccc3n(c2=O)CCN(CCOc2cccc4c2c2ccccc2n4C)C3=O)cn1` [Example 71, 2-{2-[(9-methyl-9H-carbazol-4-yl)oxy]ethyl}-7-(4-methyl-1H-imidazol-1-yl)-3,4-dihydro-2H-pyrido[1,2-a]pyrazine-1,6-dione, trifluoroacetate salt], the IC50 stood at 0.00422 µM.

`Cc1cn(-c2ccc3n(c2=O)CCN(CCOc2ccccc2-c2cc(C(F)(F)F)no2)C3=O)cn1` [Example 72, 7-(4-methyl-1H-imidazol-1-yl)-2-(2-{2-[3-(trifluoromethyl)isoxazol-5-yl]phenoxy}ethyl)-3,4-dihydro-2H-pyrido[1,2-a]pyrazine-1,6-dione]: the IC50 was found to be 0.0148 µM.

For `Cc1cn(-c2ccc3n(c2=O)CCN(CCOc2ccc(F)c4nc(C(F)(F)F)sc24)C3=O)cn1` [Example 73, 2-(2-{[4-fluoro-2-(trifluoromethyl)-1,3-benzothiazol-7-yl]oxy}ethyl)-7-(4-methyl-1H-imidazol-1-yl)-3,4-dihydro-2H-pyrido[1,2-a]pyrazine-1,6-dione], the IC50 is 0.0437 µM.

In the case of `Cc1cn(-c2ccc3n(c2=O)CCN(CCOc2nccc4oc5ccccc5c24)C3=O)cn1` [Example 74, 2-[2-([1]benzofuro[3,2-c]pyridin-1-yloxy)ethyl]-7-(4-methyl-1H-imidazol-1-yl)-3,4-dihydro-2H-pyrido[1,2-a]pyrazine-1,6-dione], the IC50 was 0.0385 µM.

As to `Cc1cn(-c2ccc3n(c2=O)CCN(CCOc2ncc(F)cc2-c2csc(C(F)(F)F)n2)C3=O)cn1` [Example 75, 2-[2-({5-fluoro-3-[2-(trifluoromethyl)-1,3-thiazol-4-yl]pyridin-2-yl}oxy)ethyl]-7-(4-methyl-1H-imidazol-1-yl)-3,4-dihydro-2H-pyrido[1,2-a]pyrazine-1,6-dione], the IC50 is 0.0623 µM.

With `Cc1cn(-c2ccc3n(c2=O)CCN(CCOc2ccc(F)cc2C2CC(F)(F)C2)C3=O)cn1` [Example 76, 2-{2-[2-(3,3-difluorocyclobutyl)-4-fluorophenoxy]ethyl}-7-(4-methyl-1H-imidazol-1-yl)-3,4-dihydro-2H-pyrido[1,2-a]pyrazine-1,6-dione], the IC50 was determined as 0.0586 µM.

Regarding `Cc1cn(-c2ccc3n(c2=O)CCN(CCOc2nsc4ccc(Cl)cc24)C3=O)cn1` [Example 77, 2-{2-[(5-chloro-1,2-benzisothiazol-3-yl)oxy]ethyl}-7-(4-methyl-1H-imidazol-1-yl)-3,4-dihydro-2H-pyrido[1,2-a]pyrazine-1,6-dione], the IC50 amounted to 0.0662 µM.

For `COc1ccc2c(OCCN3CCn4c(ccc(-n5cnc(C)c5)c4=O)C3=O)cccc2c1` [Example 78, 2-{2-[(6-methoxy-1-naphthyl)oxy]ethyl}-7-(4-methyl-1H-imidazol-1-yl)-3,4-dihydro-2H-pyrido[1,2-a]pyrazine-1,6-dione], the IC50 worked out at 0.0875 µM.

As to `Cc1cn(-c2ccc3n(c2=O)CCN(CCOc2cccc4sc5ccccc5c24)C3=O)cn1` [Example 79, 2-[2-(dibenzo[b,d]thien-1-yloxy)ethyl]-7-(4-methyl-1H-imidazol-1-yl)-3,4-dihydro-2H-pyrido[1,2-a]pyrazine-1,6-dione], the IC50 is 0.00723 µM.

With `Cc1cn(-c2ccc3n(c2=O)CCN(CCOc2ccc(F)c4sc(C(F)(F)F)nc24)C3=O)cn1` [Example 80, 2-(2-{[7-fluoro-2-(trifluoromethyl)-1,3-benzothiazol-4-yl]oxy}ethyl)-7-(4-methyl-1H-imidazol-1-yl)-3,4-dihydro-2H-pyrido[1,2-a]pyrazine-1,6-dione], the half-inhibitory concentration (IC50) was determined as 0.152 µM.

Take `Cc1cn(-c2ccc3n(c2=O)CCN(CCOc2cccc(-n4ccc(C(F)(F)F)n4)c2)C3=O)cn1` [Example 81, 7-(4-methyl-1H-imidazol-1-yl)-2-(2-{3-[3-(trifluoromethyl)-1H-pyrazol-1-yl]phenoxy}ethyl)-3,4-dihydro-2H-pyrido[1,2-a]pyrazine-1,6-dione, trifluoroacetate salt]: the IC50 was 0.384 µM.
